According to US12077503B2, “Substituted cyclic amides and their use as herbicides” (FMC CORPORATION, priority 2015, dated 2024):

Tests used:
Type in all cases: in vivo
[1] = tested on: barnyardgrass (Echinochloa crus-galli); assay: Test B flooded paddy test; settings: Echinochloa crus-galli, 360 h, Flood, 250 g ai/ha; visually evaluated after 13 to 15 d; read-out: Plant response rating, Barnyardgrass (0 to 100 scale where 0 is no effect and 100 is complete control)
Summary of the method: (§1)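 Response scored visually against untreated controls, 0 = no effect and 100 = complete control, 13–15 d after treatment in the greenhouse. Compounds added to paddy water held 3 cm above soil surface. Treatment given at 2-leaf stage.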

[2] = tested on: rice (Oryra sativa); assay: Test B flooded paddy test; settings: Oryza sativa, 360 h, Flood, 250 g ai/ha; visually evaluated after 13 to 15 d; read-out: Plant response rating, Rice (0 to 100 scale where 0 is no effect and 100 is complete control)
Summary of the method: as §1

[3] = tested on: sedge, umbrella (small-flower umbrella sedge, Cyperus difformis); assay: Test B flooded paddy test; settings: Cyperus difformis, 360 h, Flood, 250 g ai/ha; visually evaluated after 13 to 15 d; read-out: Plant response rating, Sedge, Umbrella (0 to 100 scale where 0 is no effect and 100 is complete control)
Summary of the method: as §1

[4] = tested on: ducksalad (Heteranthera limosa); assay: Test B flooded paddy test; settings: Heteranthera limosa, 360 h, Flood, 250 g ai/ha; visually evaluated after 13 to 15 d; read-out: Plant response rating, Ducksalad (0 to 100 scale where 0 is no effect and 100 is complete control)
Summary of the method: as §1

[5] = tested on: blackgrass (Alopecurus myosuroides); assay: Test A postemergence; settings: Alopecurus myosuroides, post-emergence, 240 h, Postemergence, read-out: Blackgrass plant response rating (0 to 100 scale)
Summary of the method: (§2)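 Treatment is preemergence as a directed soil spray after planting, or postemergence at the one- to two-leaf stage, with test chemical in a non-phytotoxic solvent mixture plus surfactant. Plants stay in the greenhouse about 10 d before visual injury scoring on a 0 to 100 scale versus untreated controls.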

[6] = tested on: corn (Zea mays); assay: Test A postemergence; settings: Zea mays, post-emergence, 240 h, Postemergence, read-out: Corn plant response rating (0 to 100 scale)
Summary of the method: as §2

[7] = tested on: ragweed (common ragweed, Ambrosia elatior); assay: Test A postemergence; settings: Ambrosia artemisiifolia, post-emergence, 240 h, Postemergence, read-out: Ragweed plant response rating (0 to 100 scale)
Summary of the method: as §2

[8] = tested on: barnyardgrass (Echinochloa crus-galli); assay: Test A postemergence; settings: Echinochloa crus-galli, post-emergence, 240 h, Postemergence
Summary of the method: as §2

[9] = tested on: ryegrass, Italian (Italian ryegrass, Lolium multiflorum); assay: Test A postemergence; settings: Lolium multiflorum, post-emergence, 240 h, Postemergence, read-out: Ryegrass, Italian plant response rating (0 to 100 scale)
Summary of the method: as §2

[10] = tested on: wheat (Triticum aestivum); assay: Test A postemergence; settings: Triticum aestivum, post-emergence, 240 h, Postemergence, read-out: Wheat plant response rating (0 to 100 scale)
Summary of the method: as §2

[11] = tested on: giant foxtail (Setaria faberii); assay: Test A postemergence; settings: Setaria faberi, post-emergence, 240 h, Postemergence, read-out: Foxtail, Giant plant response rating (0 to 100 scale)
Summary of the method: as §2

[12] = tested on: Kochia (Kochia scoparia); assay: Test A postemergence; settings: Bassia scoparia, post-emergence, 240 h, Postemergence, read-out: Kochia plant response rating (0 to 100 scale)
Summary of the method: as §2

[13] = tested on: Galium (catchweed bedstraw, Galium aparine); assay: Test A postemergence; settings: Galium, post-emergence, 240 h, Postemergence, read-out: Galium plant response rating (0 to 100 scale)
Summary of the method: as §2

[14] = tested on: pigweed (Amaranthus retroflexus); assay: Test A postemergence; settings: Amaranthus retroflexus, post-emergence, 240 h, Postemergence, read-out: Pigweed plant response rating (0 to 100 scale)
Summary of the method: as §2

[15] = tested on: ragweed (common ragweed, Ambrosia elatior); assay: Test A preemergence; settings: Ambrosia artemisiifolia, pre-emergence, 240 h, Preemergence
Summary of the method: as §2

[16] = tested on: barnyardgrass (Echinochloa crus-galli); assay: Test A preemergence; settings: Echinochloa crus-galli, pre-emergence, 240 h, Preemergence
Summary of the method: as §2

[17] = tested on: ryegrass, Italian (Italian ryegrass, Lolium multiflorum); assay: Test A preemergence; settings: Lolium multiflorum, pre-emergence, 240 h, Preemergence
Summary of the method: as §2

[18] = tested on: giant foxtail (Setaria faberii); assay: Test A preemergence; settings: Setaria faberi, pre-emergence, 240 h, Preemergence
Summary of the method: as §2

[19] = tested on: Kochia (Kochia scoparia); assay: Test A preemergence; settings: Bassia scoparia, pre-emergence, 240 h, Preemergence
Summary of the method: as §2

[20] = tested on: pigweed (Amaranthus retroflexus); assay: Test A preemergence; settings: Amaranthus retroflexus, pre-emergence, 240 h, Preemergence
[21] = 125 g ai/ha, visual rating about 10 d after treatment
[22] = 31 g ai/ha, 0 is no effect, 100 is complete control

COc1c([C@H]2CN(C)C(=O)[C@@H]2C(=O)Nc2ccccc2F)cccc1C(F)(F)F [Compound 1338]
100%: pest or weed control at 250 g/ha [4] | pest or weed control at 125 g/ha ([16]; 125 g ai/ha, 0 to 100 scale (0 no effect, 100 complete control), read-out: Plant response rating, Barnyardgrass)
50%: pest or weed control at 31 g/ha [11, 22]
70%: pest or weed control at 31 g/ha ([8]; 31 g ai/ha, 0 is no effect, 100 is complete control, read-out: Barnyardgrass plant response rating (0 to 100 scale))
30%: pest or weed control at 125 g/ha [13, 21]
80%: pest or weed control at 125 g/ha ([8]; 125 g ai/ha, visual rating about 10 d after treatment, read-out: Barnyardgrass plant response rating (0 to 100 scale, 0 no effect, 100 complete control)) | pest or weed control at 125 g/ha [11, 21] | pest or weed control at 31 g/ha ([18]; 31 g ai/ha, 0 to 100 scale where 0 is no effect and 100 is complete control, read-out: Foxtail, Giant plant response rating)
90%: pest or weed control at 250 g/ha [1] | pest or weed control at 31 g/ha ([16]; 31 g ai/ha, 0 to 100 scale where 0 is no effect and 100 is complete control, read-out: Barnyardgrass plant response rating) | pest or weed control at 125 g/ha ([18]; 125 g ai/ha, 0 to 100 scale (0 no effect, 100 complete control), read-out: Plant response rating, Foxtail, Giant)
25%: pest or weed control at 250 g/ha [2]
0%: pest or weed control at 250 g/ha [3] | pest or weed control at 125 g/ha [5, 21] | pest or weed control at 31 g/ha [5, 22] | plant injury at 125 g/ha [6, 21] | plant injury at 31 g/ha [6, 22] | pest or weed control at 125 g/ha [7, 21] | pest or weed control at 31 g/ha [7, 22] | pest or weed control at 125 g/ha [9, 21] | pest or weed control at 31 g/ha [9, 22] | plant injury at 125 g/ha [10, 21] | plant injury at 31 g/ha [10, 22] | pest or weed control at 125 g/ha [12, 21] | pest or weed control at 31 g/ha [12, 22] | pest or weed control at 31 g/ha [13, 22] | pest or weed control at 125 g/ha [14, 21] | pest or weed control at 31 g/ha [14, 22] | pest or weed control at 31 g/ha ([15]; 31 g ai/ha, 0 to 100 scale where 0 is no effect and 100 is complete control, read-out: Ragweed plant response rating) | pest or weed control at 125 g/ha ([15]; 125 g ai/ha, 0 to 100 scale (0 no effect, 100 complete control), read-out: Plant response rating, Ragweed) | pest or weed control at 31 g/ha ([17]; 31 g ai/ha, 0 to 100 scale where 0 is no effect and 100 is complete control, read-out: Ryegrass, Italian plant response rating) | pest or weed control at 125 g/ha ([17]; 125 g ai/ha, 0 to 100 scale (0 no effect, 100 complete control), read-out: Plant response rating, Ryegrass, Italian) | pest or weed control at 31 g/ha ([19]; 31 g ai/ha, 0 to 100 scale where 0 is no effect and 100 is complete control, read-out: Kochia plant response rating) | pest or weed control at 125 g/ha ([19]; 125 g ai/ha, 0 to 100 scale (0 no effect, 100 complete control), read-out: Plant response rating, Kochia) | pest or weed control at 31 g/ha ([20]; 31 g ai/ha, 0 to 100 scale where 0 is no effect and 100 is complete control, read-out: Pigweed plant response rating) | pest or weed control at 125 g/ha ([20]; 125 g ai/ha, 0 to 100 scale (0 no effect, 100 complete control), read-out: Plant response rating, Pigweed)
